Experimental data reported in patent US8916579B2, “5-fluoropyrimidinone derivatives” (Dow AgroSciences, LLC., priority 2009, dated 2014).
Read-outs that look alike come from different tables or passages of the source.

How the values were obtained:
[1] = system: Mycosphaerella graminicola; anamorph: Septoria tritici; Bayer code SEPTTR; assay: Fungicidal activity: leaf blotch of wheat, greenhouse wheat plants (variety Yuma), percent disease control; format: in vivo; conditions: Zymoseptoria tritici
Experimental: Evaluation of Fungicidal Activity: Leaf Blotch of Wheat (Mycosphaerella graminicola; anamorph: Septoria tritici; Bayer code SEPTTR)
Wheat plants (variety Yuma) were grown from seed in a greenhouse in 50% mineral soil/50% soil-less Metro mix until the first leaf was fully emerged, with 7-10 seedlings per pot. These plants were inoculated with an aqueous spore suspension of Septoria tritici either prior to or after fungicide treatments. After inoculation the plants were kept in 100% relative humidity (one day in a dark dew chamber followed by two to three days in a lighted dew chamber) to permit spores to germinate and infect the leaf. The plants were then transferred to a greenhouse for disease to develop.
The effectiveness of the test compounds in controlling disease was determined by assessing the severity of disease on treated plants, then converting the severity to percent control based on the level of disease on untreated, inoculated plants. • In each case of Table II the rating scale is as follows: […]

[2] = 24 h, One-Day Protectant (1DP), 100 ppm, wheat plants, read-out: SEPTTR 100 PPM 1DP (% Disease Control rating)
[3] = 72 h, Three-Day Curative (3DC), 100 ppm, wheat plants, read-out: SEPTTR 100 PPM 3DC (% Disease Control rating)
[4] = 24 h, read-out: SEPTTR 100 PPM 1DP (% Disease Control rating)
[5] = 72 h, read-out: SEPTTR 100 PPM 3DC (% Disease Control rating)

| melting point | Structure (SMILES) | pest or weed control at 100 ppm [1, 2] [%] | pest or weed control at 100 ppm [1, 3] [%] | pest or weed control at 100 ppm [1, 4] [%] | pest or weed control at 100 ppm [1, 5] [%] |
| --- | --- | --- | --- | --- | --- |
| 146 to 147.6 °C | CCCCCNC(=O)Nc1nc(=O)n(Cc2cccnc2)cc1F [Compound 89] | 0 to 25 | 26 to 50 | – | – |
| 100.2 to 101.8 °C | CCCCCNC(=O)Nc1nc(=O)n(CSC)cc1F [Compound 92] | 76 to 100 | 76 to 100 | – | – |
| 205.6 to 207.5 °C | Cc1ccc(NC(=O)Nc2nc(=O)n(CC3CC3)cc2F)cc1 [Compound 88] | 0 to 25 | 51 to 75 | – | – |
| 125.6 to 127.5 °C | CC(C)Cn1cc(F)c(NC(=O)c2cccs2)nc1=O [Compound 99] | 0 to 25 | 76 to 100 | – | – |
| 119.8 to 121.9 °C | O=C(Nc1nc(=O)n(CC2CCCO2)cc1F)c1ccccc1F (stereo not drawn) [Compound 96] | 0 to 25 | 26 to 50 | – | – |
| 228 to 230 °C | O=C(Nc1nc(=O)n(CC2CC2)cc1F)OCc1ccccc1 [Compound 81] | 26 to 50 | 76 to 100 | – | – |
| 179.6 to 181.3 °C | C=Cn1cc(F)c(/N=C/N(C)C)nc1=O [Compound 58] | 76 to 100 | 76 to 100 | – | – |
| 162 to 166 °C | CCOC(=O)OC(C)n1cc(F)c(N)nc1=O (stereo not drawn) [Compound 23] | 76 to 100 | 76 to 100 | – | – |
| 196 to 199 °C | CCOC(=O)Cn1cc(F)c(/N=C/N(C)C)nc1=O [Compound 36] | 51 to 75 | 26 to 50 | – | – |
| 113 to 114.9 °C | CCCCCNC(=O)Nc1nc(=O)n(CC2CC2)cc1F [Compound 87] | 0 to 25 | 51 to 75 | – | – |
| 188.8 to 190.2 °C | CSCn1cc(F)c(NC(=O)Nc2ccc(C)cc2)nc1=O [Compound 93] | 0 to 25 | 51 to 75 | – | – |
| 168 to 189 °C | COc1ccc(CCn2cc(F)c(N)nc2=O)cc1 [Compound 30] | 0 to 25 | 76 to 100 | – | – |
| 161.3 to 163 °C | CC(C)Cn1cc(F)c(NC(=O)c2ccccc2F)nc1=O [Compound 98] | 0 to 25 | 0 to 25 | – | – |
| 259 to 264 °C | CC(C)(C)C(=O)OCn1cc(F)c(N)nc1=O [Compound 22] | 76 to 100 | 76 to 100 | – | – |
| 88.8 to 91.7 °C | CC(C)Cn1cc(F)c(NCc2cccs2)nc1=O [Compound 106] | 26 to 50 | 26 to 50 | – | – |
| 157 to 187 °C (dec.) | CN(C)CNc1nc(=O)n(CN(C)C)cc1F [Compound 3] | 76 to 100 | 76 to 100 | – | – |
| 210.5 to 212.3 °C | O=C(Nc1ccccc1Cl)Nc1nc(=O)n(Cc2cccnc2)cc1F [Compound 91] | 0 to 25 | 0 to 25 | – | – |
| 109 to 111 °C | CCCC(=O)OCn1cc(F)c(/N=C/N(C)C)nc1=O [Compound 13] | 76 to 100 | 76 to 100 | – | – |
| 195 °C (dec.) | Cn1cc(F)c(N)nc1=O [Compound 28, 4-amino-5-fluoro-1-methylpyrimidin-2(1H)-one] | 51 to 75 | 76 to 100 | – | – |
| 178 to 179 °C | Cc1ccc(Cn2cc(F)c(/N=C/N(C)C)nc2=O)cc1 [Compound 7] | 0 to 25 | 0 to 25 | – | – |
| 150 to 154 °C | CCOC(=O)C(OCC)n1cc(F)c(N)nc1=O (stereo not drawn) [Compound 20] | 0 to 25 | 0 to 25 | – | – |

| melting point | Structure (SMILES) | pest or weed control at 100 ppm [1, 2] [%] | pest or weed control at 100 ppm [1, 3] [%] | pest or weed control at 100 ppm [1, 4] [%] | pest or weed control at 100 ppm [1, 5] [%] |
| --- | --- | --- | --- | --- | --- |
| 210 to 214 °C | CCCC(=O)OCn1cc(F)c(N)nc1=O [Compound 21] | 76 to 100 | 76 to 100 | – | – |
| 168.6 to 169.1 °C | C=Cn1cc(F)c(NCc2ccccc2F)nc1=O [Compound 67] | 0 to 25 | 51 to 75 | – | – |
| 250 to 254 °C | Nc1nc(=O)n(Cc2ccc(F)cc2F)cc1F [Compound 33] | 0 to 25 | 51 to 75 | – | – |
| 206.3 to 207.9 °C | COc1ccc(-n2cc(F)c(NCc3ccccc3F)nc2=O)cc1OC [Compound 66] | 0 to 25 | 0 to 25 | – | – |
| 160 to 163 °C | COCCOCn1cc(F)c(N)nc1=O [Compound 16] | 0 to 25 | 0 to 25 | – | – |
| 196.1 to 198 °C | COc1ccc(-n2cc(F)c(/N=C/N(C)C)nc2=O)cc1OC [Compound 57] | 0 to 25 | 0 to 25 | – | – |
| 196 to 200 °C | CN(C)/C=N/c1nc(=O)n(Cc2ccc(F)c(F)c2)cc1F [Compound 35] | 51 to 75 | 51 to 75 | – | – |
| 213.5 to 214.4 °C | C=Cn1cc(F)c(N)nc1=O [Compound 41] | 76 to 100 | 76 to 100 | – | – |
| 175 to 178 °C | N#Cc1cccc(-n2cc(F)c(N)nc2=O)c1 [Compound 46] | 0 to 25 | 0 to 25 | – | – |
| 178.2 to 180 °C | Cc1ccc(NC(=O)Nc2nc(=O)n(Cc3cccnc3)cc2F)cc1 [Compound 90] | 0 to 25 | 0 to 25 | – | – |
| 275 to 279 °C | Nc1nc(=O)n(-c2ccc3c(c2)OCO3)cc1F [Compound 47] | 26 to 50 | 0 to 25 | – | – |
| 252 to 254 °C | Nc1nc(=O)n(CCc2ccc(Cl)cc2)cc1F [Compound 31] | 0 to 25 | 76 to 100 | – | – |
| 225 to 227 °C | Cc1ccc(-n2cc(F)c(N)nc2=O)cc1 [Compound 43] | 26 to 50 | 0 to 25 | – | – |
| 197 to 200 °C | Nc1nc(=O)n(CCCCn2cncn2)cc1F [Compound 27, 4-amino-5-fluoro-1-(4-[1,2,4]triazol-1-yl-butyl)-1H-pyrimidin-2-one] | 0 to 25 | 0 to 25 | – | – |
| 75 to 78 °C | O=c1nc(NCc2ccccc2F)c(F)cn1-c1ccsc1 [Compound 65, 5-fluoro-4-(2-fluorobenzylamino)-1-(thiophen-3-yl)pyrimidin-2(1H)-one] | 0 to 25 | 0 to 25 | – | – |
| 140 to 142.8 °C | CC(C)Cn1cc(F)c(N)nc1=O [Compound 77] | 26 to 50 | 0 to 25 | – | – |
| 166 to 170 °C | CCCCCCCCOCn1cc(F)c(N)nc1=O [Compound 18] | 26 to 50 | 51 to 75 | – | – |
| 157 to 160 °C | CCn1cc(F)c(/N=C/N(C)C)nc1=O [Compound 34, (E)-N′-(1-ethyl-5-fluoro-2-oxo-1,2-dihydropyrimidin-4-yl)-N,N-dimethylformimidamide] | 76 to 100 | 76 to 100 | – | – |
| 279 °C (dec.) | CCn1cc(F)c(N)nc1=O [Compound 29] | 51 to 75 | 76 to 100 | – | – |
| 186 to 188 °C | CN(C)/C=N/c1nc(=O)n(Cc2ccccc2)cc1F [Compound 6] | 0 to 25 | 0 to 25 | – | – |
| 181.8 to 183.5 °C | CSCn1cc(F)c(NC(=O)Nc2ccccc2Cl)nc1=O [Compound 86] | 26 to 50 | 26 to 50 | – | – |

| Structure (SMILES) | melting point | pest or weed control at 100 ppm [1, 2] [%] | pest or weed control at 100 ppm [1, 3] [%] | pest or weed control at 100 ppm [1, 4] [%] | pest or weed control at 100 ppm [1, 5] [%] |
| --- | --- | --- | --- | --- | --- |
| Nc1nc(=O)n(-c2ccsc2)cc1F [Compound 39, 4-amino-5-fluoro-1-(thiophen-3-yl)pyrimidin-2(1H)-one] | 228 to 229 °C | – | – | 0 to 25 | 76 to 100 |
| CSCn1cc(F)c(/N=C/N(C)C)nc1=O [Compound 24, N′-(5-fluoro-1-methylsulfanylmethyl-2-oxo-1,2-dihydropyrimidin-4-yl)-N,N-dimethylformamidine] | 132 to 136 °C | – | – | 76 to 100 | 76 to 100 |
| O=C(Oc1ccccc1)N(C(=O)Oc1ccccc1)c1nc(=O)n(CC2CC2)cc1F [Compound 82] | 159 to 161 °C | – | – | 26 to 50 | 26 to 50 |
| CCOC(=O)Nc1nc(=O)n(CC2CC2)cc1F [Compound 80, ethyl 1-(cyclopropylmethyl)-5-fluoro-2-oxo-1,2-dihydropyrimidin-4-ylcarbamate] | 90 to 92 °C | – | – | 0 to 25 | 51 to 75 |
| C[Si](C)(C)CCOCn1cc(F)c(N)nc1=O [Compound 17] | 187 to 192 °C | 51 to 75 | 76 to 100 | – | – |
